Data as given in patent US8211922B2, “1-methylnicotinamide derivatives and formulations for treatment of lipoprotein abnormalities” (Cortria Corporation, priority 2005, dated 2012).

Legend:
dyslipidemic patients = assay: Anti-atherogenic effect of MNA after long term use (13 months), plasma lipids in patients; assay type: in vivo, human; settings: for HDL % / TG % / TG/HDL % / Total Cholesterol % / LDL %: change vs time 0
Method: The anti-atherogenic effect of MNA was investigated in 2 dyslipidemic patients. The enrollment criteria was: high level of TG (≧250 mg/dl) and/or high level of TC (≧200 mg/dl). The patients were treated with MNA for 13 months. The MNA was administered orally, two times a day (50 mg MNA) after meal.
The plasma levels of TC, TG, and HDL were measured at baseline and during the therapy. The level of LDL was measured in those cases where it was possible (due to high TG level).

apoE/LDLR−/− mice = assay: Mice model of atheroprotection, quantitation of atherosclerosis; assay type: in vivo; settings: female apoE/LDLR−/− mice, 100 mg/kg MNA for 2 months, vs placebo; FIG. 2
Method: Female apoE/LDLR^−/− mice on C57BL/6J background were used for experiments. The experiments were conducted according to the Guidelines for Animal Care and Treatment of the European Communities and were approved by the Local Animal Ethics Committee. apoE/LDLR^−/− mice were fed with standard chow. MNA was given for 2 months (100 mg/kg, 4-6 months old apoE/LDLR^−/− mice) and effects of MNA compared to placebo-treated mice. In each group of mice (control and MNA) n=5.
Development of atherosclerosis was determined by cross-section (aortic roots), en-face (whole aorta) analysis and quantified semiautomatically, as described before (Jawien et al. Eur J Clin Invest; 2006; 36:141-6). Briefly, the heart and whole aorta were washed by phosphate buffered saline, then the heart and the whole aorta were removed. The heart and ascending aorta were embedded in OCT compound and snap-frozen. Ten micrometer-thick cryosections were cut and after fixation in 4% paraformaldehyde were stained with Meyer's hematoxylin and oil red-O and lesion area was measured semiautomatically in each slide using LSM Image Browser software.

[1] = Binding to Sepharose immobilized heparin; settings: as a cationic molecule
various cell lines = assay: Cytoprotection of cell lines; assay type: cell-based
[2] = Toxicity and tolerability
[3] = 2 dyslipidemic patients, 50 mg MNA orally two times a day, 13 months

Substance: 1-methylnicotinamide chloride [MNA]
- TC level (dyslipidemic patients; [3]): reduced significantly
- TG level (dyslipidemic patients; [3]): reduced significantly
- HDL levels (dyslipidemic patients; 2 dyslipidemic patients, after only a few months of therapy): increase
- TG/HDL ratio (dyslipidemic patients; 2 dyslipidemic patients, long term use): reduction
- TG (dyslipidemic patients; Patient 1, 50 mg MNA orally two times a day, 1.5 months): 218 mg/dL
- TG (dyslipidemic patients; Patient 1, 50 mg MNA orally two times a day, 6 months): 255 mg/dL
- TG (dyslipidemic patients; Patient 1, 50 mg MNA orally two times a day, 12 months): 315 mg/dL
- HDL (dyslipidemic patients; Patient 1, 1.5 months): 28.0 mg/dL
- LDL (dyslipidemic patients; Patient 1, 1.5 months): 81.4 mg/dL
- TG/HDL (dyslipidemic patients; Patient 1, 1.5 months): 7.79
- Total Cholesterol (dyslipidemic patients; Patient 1, 1.5 months): 153 mg/dL
- HDL (dyslipidemic patients; Patient 1, 6 months): 38.6 mg/dL
- LDL (dyslipidemic patients; Patient 1, 6 months): 87.0 mg/dL
- TG/HDL (dyslipidemic patients; Patient 1, 6 months): 6.61
- Total Cholesterol (dyslipidemic patients; Patient 1, 6 months): 177 mg/dL
- HDL (dyslipidemic patients; Patient 1, 12 months): 48.1 mg/dL
- LDL (dyslipidemic patients; Patient 1, 12 months): 118.0 mg/dL
- TG/HDL (dyslipidemic patients; Patient 1, 12 months): 6.55
- Total Cholesterol (dyslipidemic patients; Patient 1, 12 months): 229 mg/dL
- HDL % (dyslipidemic patients; Patient 1, 1.5 months): −8.79%
- TG % (dyslipidemic patients; Patient 1, 1.5 months): −77.39%
- TG/HDL % (dyslipidemic patients; Patient 1, 1.5 months): −75.21%
- Total Cholesterol % (dyslipidemic patients; Patient 1, 1.5 months): −48.66%
- HDL % (dyslipidemic patients; Patient 1, 6 months): 25.73%
- TG % (dyslipidemic patients; Patient 1, 6 months): −73.55%
- TG/HDL % (dyslipidemic patients; Patient 1, 6 months): −78.96%
- Total Cholesterol % (dyslipidemic patients; Patient 1, 6 months): −40.60%
- HDL % (dyslipidemic patients; Patient 1, 12 months): 56.68%
- TG % (dyslipidemic patients; Patient 1, 12 months): −67.32%
- TG/HDL % (dyslipidemic patients; Patient 1, 12 months): −79.14%
- Total Cholesterol % (dyslipidemic patients; Patient 1, 12 months): −23.15%
- TG (dyslipidemic patients; Patient 2, 50 mg MNA orally two times a day, 7 months): 269 mg/dL
- TG (dyslipidemic patients; Patient 2, 50 mg MNA orally two times a day, 13 months): 160 mg/dL
- HDL (dyslipidemic patients; Patient 2, 7 months): 79.0 mg/dL
- LDL (dyslipidemic patients; Patient 2, 7 months): 128.0 mg/dL
- TG/HDL (dyslipidemic patients; Patient 2, 7 months): 3.41
- Total Cholesterol (dyslipidemic patients; Patient 2, 7 months): 261 mg/dL
- HDL (dyslipidemic patients; Patient 2, 13 months): 70.8 mg/dL
- LDL (dyslipidemic patients; Patient 2, 13 months): 106.8 mg/dL
- TG/HDL (dyslipidemic patients; Patient 2, 13 months): 2.26
- Total Cholesterol (dyslipidemic patients; Patient 2, 13 months): 210 mg/dL
- HDL % (dyslipidemic patients; Patient 2, 7 months): 79.55%
- LDL % (dyslipidemic patients; Patient 2, 7 months): −53.11%
- TG % (dyslipidemic patients; Patient 2, 7 months): −10.93%
- TG/HDL % (dyslipidemic patients; Patient 2, 7 months): −50.39%
- Total Cholesterol % (dyslipidemic patients; Patient 2, 7 months): −28.49%
- HDL % (dyslipidemic patients; Patient 2, 13 months): 60.91%
- LDL % (dyslipidemic patients; Patient 2, 13 months): −60.88%
- TG % (dyslipidemic patients; Patient 2, 13 months): −47.02%
- TG/HDL % (dyslipidemic patients; Patient 2, 13 months): −67.07%
- Total Cholesterol % (dyslipidemic patients; Patient 2, 13 months): −42.47%
- Atherosclerosis progression (lesion area) (apoE/LDLR−/− mice): slows atherosclerosis progression
- Binding to Sepharose immobilized heparin [1]: bound
- Cytoprotection (various cell lines): cytoprotective
- Tolerability [2]: very well tolerated
- Toxicity [2]: non-toxic
